Measured values published in patent US12268667B2, “JAK1 pathway inhibitors for the treatment of prurigo nodularis” (Incyte Corporation, priority 2021, dated 2025).

Experiments:
[1] = molecular target: human JAK2 (a.a. 828-1132) (Homo sapiens (Human), UniProt O60674); assay: In vitro JAK kinase assay (HTRF), JAK2; assay type: biochemical; conditions: JAK2/JAK1 IC50 ratio at 1 mM ATP
Description: (§1) The catalytic activity of JAK1, JAK2 or JAK3 are assayed by measuring the phosphorylation of a biotinylated peptide. The phosphorylated peptide was detected by homogenous time resolved fluorescence (HTRF). […] Reactions are carried out at room temperature for 1 hour and then stopped with 20 μL 45 mM EDTA, 300 nM SA-APC, 6 nM Eu-Py20 in assay buffer (Perkin Elmer, Boston, MA). Binding to the Europium labeled antibody takes place for 40 minutes and HTRF signal was measured on a Fusion plate reader (Perkin Elmer, Boston, MA).

[2] = molecular target: human JAK1 (a.a. 837-1142) (Homo sapiens, UniProt P23458); assay: In vitro JAK kinase assay (HTRF), JAK1; assay type: biochemical; conditions: 1 mM ATP
Description: as §1

Sequence of human JAK2 (a.a. 828-1132) (O60674 828-1132): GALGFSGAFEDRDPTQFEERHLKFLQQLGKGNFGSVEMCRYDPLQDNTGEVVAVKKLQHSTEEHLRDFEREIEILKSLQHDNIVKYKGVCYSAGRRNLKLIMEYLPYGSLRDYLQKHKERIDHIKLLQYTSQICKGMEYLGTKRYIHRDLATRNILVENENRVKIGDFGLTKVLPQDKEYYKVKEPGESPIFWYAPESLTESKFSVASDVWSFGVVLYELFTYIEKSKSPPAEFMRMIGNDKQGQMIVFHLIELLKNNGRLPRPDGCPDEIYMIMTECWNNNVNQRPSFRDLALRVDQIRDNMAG

Row | SMILES | JAK2/JAK1 [1] | IC50 [2] [nM]
1 | N#CCC(C1CCN(c2cccc(Cl)n2)C1)n1cc(-c2ncnc3[nH]ccc23)cn1 (single isomer, unassigned) [Compound 6, 3-[1-(6-chloropyridin-2-yl)pyrrolidin-3-yl]-3-[4-(7H-pyrrolo[2,3-d]pyrimidin-4-yl)-1H-pyrazol-1-yl]propanenitrile] | >10 | < 10
2 | N#CCC1(n2cc(-c3ncnc4[nH]ccc34)cn2)CN(C2CCN(C(=O)Nc3ccc(F)cc3C(F)(F)F)CC2)C1 [Compound 2, 4-{3-(Cyanomethyl)-3-[4-(7H-pyrrolo[2,3-d]pyrimidin-4-yl)-1H-pyrazol-1-yl]azetidin-1-yl}-N-[4-fluoro-2-(trifluoromethyl)phenyl] piperidine-1-carboxamide] | >10 | < 10
3 | N#CCC1(n2cc(-c3ncnc4[nH]ccc34)cn2)CN(C2CCN(C(=O)c3ccnc(C(F)(F)F)n3)CC2)C1 [Compound 3, [3-[4-(7H-pyrrolo[2,3-d]pyrimidin-4-yl)-1H-pyrazol-1-yl]-1-(1-{[2-(trifluoromethyl)pyrimidin-4-yl]carbonyl}piperidin-4-yl)azetidin-3-yl]acetonitrile] | >10 | < 10
4 | N#CCC1(n2cc(-c3ncnc4[nH]ccc34)cn2)CN(C2CCN(C(=O)c3ccnc(C(F)(F)F)c3F)CC2)C1 [Compound 4, {1-{1-[3-Fluoro-2-(trifluoromethyl)isonicotinoyl]piperidin-4-yl}-3-[4-(7H-pyrrolo[2,3-d]pyrimidin-4-yl)-1H-pyrazol-1-yl]azetidin-3-yl}acetonitrile] | >10 | < 10
5 | C[C@@H](O)c1nc2cnc3ccsc3c2n1[C@H]1CC[C@H](CC#N)OC1 [Compound 5, ((2R,5S)-5-{2-[(1R)-1-hydroxyethyl]-1H-imidazo[4,5-d]thieno[3,2-b]pyridin-1-yl}tetrahydro-2H-pyran-2-yl)acetonitrile] | >10 | < 100
6 | N#CCC(C1CCN(c2nc3cccnc3o2)C1)n1cc(-c2ncnc3[nH]ccc23)cn1 (centres unmarked) [Compound 7, 3-(1-[1,3]oxazolo[5,4-b]pyridin-2-ylpyrrolidin-3-yl)-3-[4-(7H-pyrrolo[2,3-d]pyrimidin-4-yl)-1H-pyrazol-1-yl]propanenitrile] | >10 | < 10
7 | N#CCC(CN1CCN(C(=O)c2ccc(C#N)cc2F)CC1)n1cc(-c2ncnc3[nH]ccc23)cn1 (centres unmarked) [Compound 8, 4-[(4-{3-cyano-2-[4-(7H-pyrrolo[2,3-d]pyrimidin-4-yl)-1H-pyrazol-1-yl]propyl}piperazin-1-yl)carbonyl]-3-fluorobenzonitrile] | >10 | < 10
8 | N#CCC(CN1CCN(C(=O)c2ccc(C#N)cc2F)CC1)n1ccc(-c2ncnc3[nH]ccc23)c1 (centres unmarked) [Compound 9, 4-[(4-{3-cyano-2-[3-(7H-pyrrolo[2,3-d]pyrimidin-4-yl)-1H-pyrrol-1-yl]propyl}piperazin-1-yl)carbonyl]-3-fluorobenzonitrile] | >10 | < 10
9 | N#CC[C@]1(n2cc(-c3ncnc4[nH]ccc34)cn2)C[C@H](N2CCN(C(=O)c3ccnc(C(F)(F)F)n3)CC2)C1 [Compound 10, [trans-1-[4-(7H-pyrrolo[2,3-d]pyrimidin-4-yl)-1H-pyrazol-1-yl]-3-(4-{[2-(trifluoromethyl)pyrimidin-4-yl]carbonyl}piperazin-1-yl)cyclobutyl]acetonitrile] | >10 | < 10
10 | N#CC[C@]1(n2cc(-c3ncnc4[nH]ccc34)cn2)C[C@H](N2CCC(Oc3cc(CN4CC(O)C4)cc(C(F)(F)F)n3)CC2)C1 [Compound 11, {trans-3-(4-{[4-[(3-hydroxyazetidin-1-yl)methyl]-6-(trifluoromethyl)pyridin-2-yl]oxy}piperidin-1-yl)-1-[4-(7H-pyrrolo[2,3-d]pyrimidin-4-yl)-1H-pyrazol-1-yl]cyclobutyl}acetonitrile] | >10 | < 10
11 | N#CC[C@]1(n2cc(-c3ncnc4[nH]ccc34)cn2)C[C@H](N2CCC(Oc3cc(CN4CCC[C@H]4CO)cc(C(F)(F)F)n3)CC2)C1 [Compound 12, {trans-3-(4-{[4-{[(2S)-2-(hydroxymethyl)pyrrolidin-1-yl]methyl}-6-(trifluoromethyl)pyridin-2-yl]oxy}piperidin-1-yl)-1-[4-(7H-pyrrolo[2,3-d]pyrimidin-4-yl)-1H-pyrazol-1-yl]cyclobutyl}acetonitrile] | >10 | < 10
12 | N#CC[C@]1(n2cc(-c3ncnc4[nH]ccc34)cn2)C[C@H](N2CCC(Oc3cc(CN4CCC[C@@H]4CO)cc(C(F)(F)F)n3)CC2)C1 [Compound 13, {trans-3-(4-{[4-{[(2R)-2-(hydroxymethyl)pyrrolidin-1-yl]methyl}-6-(trifluoromethyl)pyridin-2-yl]oxy}piperidin-1-yl)-1-[4-(7H-pyrrolo[2,3-d]pyrimidin-4-yl)-1H-pyrazol-1-yl]cyclobutyl}acetonitrile] | >10 | < 10
13 | C[C@H](NC(=O)c1cc(F)c(N2CC(CC#N)(n3cc(-c4ncnc5[nH]ccc45)cn3)C2)cc1F)C(F)(F)F [Compound 16, 4-{3-(cyanomethyl)-3-[4-(7H-pyrrolo[2,3-d]pyrimidin-4-yl)-1H-pyrazol-1-yl]azetidin-1-yl}-2,5-difluoro-N-[(1S)-2,2,2-trifluoro-1-methylethyl]benzamide] | >10 | < 10
14 | N#CCC1(n2cc(-c3ncnc4[nH]ccc34)cn2)CN([C@H]2CC[C@@H](Oc3cc(CCO)nc(C(F)(F)F)n3)CC2)C1 [Compound 18, {1-(cis-4-{[6-(2-hydroxyethyl)-2-(trifluoromethyl)pyrimidin-4-yl]oxy}cyclohexyl)-3-[4-(7H-pyrrolo[2,3-d]pyrimidin-4-yl)-1H-pyrazol-1-yl]azetidin-3-yl}acetonitrile] | >10 | < 10
15 | CCNCc1cc(O[C@H]2CC[C@@H](N3CC(CC#N)(n4cc(-c5ncnc6[nH]ccc56)cn4)C3)CC2)nc(C(F)(F)F)c1 [Compound 19, {1-(cis-4-{[4-[(ethylamino)methyl]-6-(trifluoromethyl)pyridin-2-yl]oxy}cyclohexyl)-3-[4-(7H-pyrrolo[2,3-d]pyrimidin-4-yl)-1H-pyrazol-1-yl]azetidin-3-yl}acetonitrile] | >10 | < 10
16 | CC(C)(O)c1cc(O[C@H]2CC[C@@H](N3CC(CC#N)(n4cc(-c5ncnc6[nH]ccc56)cn4)C3)CC2)nc(C(F)(F)F)c1 [Compound 20, {1-(cis-4-{[4-(1-hydroxy-1-methylethyl)-6-(trifluoromethyl)pyridin-2-yl]oxy}cyclohexyl)-3-[4-(7H-pyrrolo[2,3-d]pyrimidin-4-yl)-1H-pyrazol-1-yl]azetidin-3-yl}acetonitrile] | >10 | < 10
17 | N#CCC1(n2cc(-c3ncnc4[nH]ccc34)cn2)CN([C@H]2CC[C@@H](Oc3cc(CN4CC[C@@H](O)C4)cc(C(F)(F)F)n3)CC2)C1 [Compound 21, {1-(cis-4-{[4-{[(3R)-3-hydroxypyrrolidin-1-yl]methyl}-6-(trifluoromethyl)pyridin-2-yl]oxy}cyclohexyl)-3-[4-(7H-pyrrolo[2,3-d]pyrimidin-4-yl)-1H-pyrazol-1-yl]azetidin-3-yl}acetonitrile] | >10 | < 10
18 | N#CCC1(n2cc(-c3ncnc4[nH]ccc34)cn2)CN([C@H]2CC[C@@H](Oc3cc(CN4CC[C@H](O)C4)cc(C(F)(F)F)n3)CC2)C1 [Compound 22, {1-(cis-4-{[4-{[(3S)-3-hydroxypyrrolidin-1-yl]methyl}-6-(trifluoromethyl)pyridin-2-yl]oxy}cyclohexyl)-3-[4-(7H-pyrrolo[2,3-d]pyrimidin-4-yl)-1H-pyrazol-1-yl]azetidin-3-yl}acetonitrile] | >10 | < 10
19 | C[C@@H](CO)NCc1cc(OC2CCN([C@H]3C[C@](CC#N)(n4cc(-c5ncnc6[nH]ccc56)cn4)C3)CC2)nc(C(F)(F)F)c1 [Compound 23, {trans-3-(4-{[4-({[(1S)-2-hydroxy-1-methylethyl]amino}methyl)-6-(trifluoromethyl)pyridin-2-yl]oxy}piperidin-1-yl)-1-[4-(7H-pyrrolo[2,3-d]pyrimidin-4-yl)-1H-pyrazol-1-yl]cyclobutyl}acetonitrile] | >10 | < 10
20 | C[C@@H](O)CNCc1cc(OC2CCN([C@H]3C[C@](CC#N)(n4cc(-c5ncnc6[nH]ccc56)cn4)C3)CC2)nc(C(F)(F)F)c1 [Compound 24, {trans-3-(4-{[4-({[(2R)-2-hydroxypropyl]amino}methyl)-6-(trifluoromethyl)pyridin-2-yl]oxy}piperidin-1-yl)-1-[4-(7H-pyrrolo[2,3-d]pyrimidin-4-yl)-1H-pyrazol-1-yl]cyclobutyl}acetonitrile] | >10 | < 10
21 | C[C@H](O)CNCc1cc(OC2CCN([C@H]3C[C@](CC#N)(n4cc(-c5ncnc6[nH]ccc56)cn4)C3)CC2)nc(C(F)(F)F)c1 [Compound 25, {trans-3-(4-{[4-({[(2S)-2-hydroxypropyl]amino}methyl)-6-(trifluoromethyl)pyridin-2-yl]oxy}piperidin-1-yl)-1-[4-(7H-pyrrolo[2,3-d]pyrimidin-4-yl)-1H-pyrazol-1-yl]cyclobutyl}acetonitrile] | >10 | < 10
22 | N#CC[C@]1(n2cc(-c3ncnc4[nH]ccc34)cn2)C[C@H](N2CCC(Oc3cc(CCO)cc(C(F)(F)F)n3)CC2)C1 [Compound 26, {trans-3-(4-{[4-(2-hydroxyethyl)-6-(trifluoromethyl)pyridin-2-yl]oxy}piperidin-1-yl)-1-[4-(7H-pyrrolo[2,3-d]pyrimidin-4-yl)-1H-pyrazol-1-yl]cyclobutyl}acetonitrile] | >10 | < 10
